From ChEMBL document CHEMBL6153074, “Discovery of novel dual tubulin and MMPs inhibitors for the treatment of lung cancer and overcoming drug resistance” (Eur J Med Chem, 2025)
Activity calls are given as the source filed them. The rule behind the calls is not given here.

Tests used:
[1] = test system: A549; experiment: Induction of DNA damage in human A549 cells assessed as increase in gamma-H2AX level at 0.5 uM incubated for 24 hrs by immunofluorescence based analysis; format: functional, cell-based
[2] = test system: A549; experiment: Anti-angiogenesis effect in human A549 cells assessed as disruption of tube-like network formation at 0.25 to 0.5 uM incubated for 6 hrs by tube formation assay; format: functional, cell-based; details: dose 0.25-0.5 µM
[3] = test system: A549; experiment: Anti-migration activity in human A549 cells assessed as migration rate at 0.5 uM incubated for 24 hrs by wound healing assay (reference value: 73.94 %); format: functional
[4] = test system: A549; experiment: cells; details: Homo sapiens
Description: Antiproliferative activity against human A549 cells by CCK8 assay

[5] = test system: A549; experiment: Induction of apoptosis in human A549 cells assessed as decrease in Bcl-2 level at 0.5 uM incubated for 24 hrs by Western blot analysis; format: functional, cell-based
[6] = test system: A549; experiment: Induction of cell cycle arrest in human A549 cells assessed as accumulation at G1 phase at 0.5 uM incubated for 24 hrs by PI staining based flow cytometry (reference value: 58.67 %); format: functional
[7] = test system: A549; experiment: Anti-migration activity in human A549 cells assessed as migration rate at 0.25 uM incubated for 24 hrs by wound healing assay (reference value: 73.94 %); format: functional
[8] = test system: A549; experiment: Downregulation of IKK-beta phosphorylation in TNF-alpha-treated human A549 cells by Western blot analysis; format: functional, cell-based
[9] = molecular target: Tubulin (Homo sapiens) (UniProt P68371+Q9H4B7+P0DPH7+P68366+Q13509+Q71U36+P04350+Q3ZCM7+P07437+P68363+Q9BQE3+Q6PEY2+Q13885+Q9BVA1+Q9BUF5); experiment: Disruption of microtubule network in human A549 cells assessed as cell disorganisation at 2.5 to 5 uM incubated for 24 hrs by immunofluorescence based analysis; details: dose 2.5-5 µM
[10] = test system: A549; experiment: Downregulation of NF-kappaB p65 phosphorylation in TNF-alpha-treated human A549 cells by Western blot analysis; format: functional, cell-based
[11] = test system: A549; experiment: Induction of intracellular ROS accumulation in human A549 cells assessed as increase in green fluorescence incubated for 24 hrs by DCFH-DA dye based confocal microscopy; format: functional, cell-based
[12] = test system: A549; experiment: Antitumor activity against human A549 cells xenografted in BALB/c mouse at 10 mg/kg, ip for 3 weeks administered on every 2 days relative to control; format: functional; details: A549, 504 h, read-out: TGI
[13] = test system: A549; experiment: Induction of mitochondrial fragmentation in human A549 cells assessed as increase in green fluorescence at 0.5 uM incubated for 24 hrs by JC-1 dye based analysis; format: functional, cell-based
[14] = test system: A549; experiment: Induction of intracellular ROS accumulation in human A549 cells at 0.5 uM incubated for 24 hrs by DCFH-DA dye based flow cytometry (reference value: 4.96 %); format: functional
[15] = test system: A549; experiment: Induction of apoptosis in human A549 cells assessed as early apoptotic cells at 0.25 uM incubated for 24 hrs by Annexin V-FITC/PI staining based flow cytometry (reference value: 3.04 %); format: functional
[16] = test system: A549; experiment: Induction of apoptosis in human A549 cells assessed as late apoptotic cells at 0.25 uM incubated for 24 hrs by Annexin V-FITC/PI staining based flow cytometry (reference value: 1.01 %); format: functional
[17] = Stability of compound assessed as carboxylesterase (unknown origin)-mediated drug hydrolysis incubated for 4 hrs by RP-HPLC analysis; format: ADME; details: human
[18] = test system: A549; experiment: Induction of cell cycle arrest in human A549 cells assessed as decrease in cyclin B1 by Western blot analysis; format: functional, cell-based

Question: Which results are given for `CCOP(=O)(OCC)C(Nc1ccc(CC(=O)Oc2cc(/C=C/C(=O)c3cc(OC)c(OC)c(OC)c3)ccc2OC)cc1)c1cccc([N+](=O)[O-])c1` (stereo not drawn)?
Answer: Activity [1]: Active; Activity [2]: Active; Activity [3]: 25.17%; IC50 [4]: 154 nM; Activity [5]: Active; Activity [6]: 15.53%; Activity [7]: 62.35%; Activity [8]: Active; Activity [9]: Active; Activity [10]: Active; Activity [11]: Active; inhibition in vivo at 10 mg/kg [12]: 53.3%; Activity [13]: Active; Activity [14]: 70.79%; Activity [15]: 16.18%; Activity [16]: 3.62%; Stability [17]: Unstable; Activity [18]: Active
